Measured values published in ChEMBL document CHEMBL5661943, “ASAP - In vitro antiviral effect” (2024).
Where “and” joins values, the source holds several entries; their conditions need not be identical. Equal values may be shown once.

Tests used:
Zika virus [1] = assay: EC50 is reported via analysis of immunofluorescence staining. The assay has been performed by Icahn School of Medicine at Mount Sinai.; format: functional, organism-based, Chlorocebus sabaeus, VeroE6/TMPRSS2
dengue virus type 2 [2] = assay: (§1) Functional immunofluorescence assay to measure dose dependent changes in antiviral-drug inhibitory efficacy against Dengue virus type 2 Thailand/16681/84 in Vero E6/TMPRSS2 cells (cotreated with P-gp inhibitor, Elacridar). Cells are treated with antiviral candidates that are serially diluted, following infection, cells are fixed. EC50 is reported via analysis of immunofluorescence staining. The assay has been performed by Icahn School of Medicine at Mount Sinai.; format: organism-based, Chlorocebus sabaeus, VeroE6/TMPRSS2; settings: for EC90: Baseline response 0 %, Maximum response 100 %, P-gp concentration 2 uM, P-gp inhibitor Elacidar
Zika virus [3] = assay: (§2) Functional CPE-based assay to measure dose dependent changes in antiviral-drug inhibitory efficacy against Zika virus MR766 in Vero E6 miRFP670 cells. Cells are treated with antiviral candidates that are serially diluted. EC50 is reported via analysis of MTS assay as a readout of CPE. The assay has been performed by KU Leuven.; format: organism-based, Chlorocebus sabaeus, Vero C1008; settings: Zika virus
Zika virus [4] = assay: as §1, with “Zika” for “Dengue”, “PRVABC59” for “type 2 Thailand/16681/84”, “cells.” for “cells (cotreated with P-gp inhibitor, Elacridar).”; format: organism-based, Chlorocebus sabaeus
dengue virus type 2 [5] = assay: as §1, with “cells.” for “cells (cotreated with P-gp inhibitor, Elacridar).”; format: organism-based, Chlorocebus sabaeus; settings: for EC50: VeroE6/TMPRSS2; for EC90: VeroE6/TMPRSS2, Baseline response 0 %, Maximum response 100 %
dengue virus type 2 [6] = assay: Functional assay to measure dose dependent changes in antiviral-drug inhibitory efficacy against Dengue virus type 2 New Guinea C in Vero E6 miRFP670 cells (cotreated with P-gp inhibitor, CP100356). Cells are treated with antiviral candidates that are serially diluted, following infection, cells are fixed. EC50 is reported via analysis of fluorescence intensity using high-content imager. The …; format: organism-based, Chlorocebus sabaeus, Vero C1008; settings: Dengue virus; for EC90: P-gp concentration 500 nM, P-gp inhibitor CP100356
dengue virus type 2 [7] = assay: as §2, with “Dengue” for “Zika”, “type 2 New Guinea C” for “MR766”, “Huh7” for “Vero E6 miRFP670”, “MTT/MTS” for “MTS”, “National Institute of Allergy and Infectious Diseases.” for “KU Leuven.”; format: organism-based, Homo sapiens; settings: Huh-7

Cc1[nH]c2ccccc2c1CN1CCC(c2c[nH]c3ncccc23)CC1
EC90 (Zika virus [1]; Baseline response 0 %, EC90 CI (lower) 0.367 uM, EC90 CI (upper) 8.175 uM, Hill slope -1.726, Maximum measured 163.583 %, Maximum response 100 %, Minimum measured 5.054 %, P-gp concentration 2 uM, R squared 0.694, P-gp inhibitor Elacidar): 22.1 µM
EC90 (Zika virus [1]; Baseline response 0 %, Hill slope -0.27, Maximum measured 107.973 %, Maximum response 100 %, Minimum measured 29.852 %, P-gp concentration 2 uM, R squared 0.23, P-gp inhibitor Elacidar): > 10 µM
EC50 (Zika virus [1]; Zika virus, VeroE6/TMPRSS2): > 10 µM
EC50 (Zika virus [1]; veroe6/tmprss2): 6.19 µM
EC90 (dengue virus type 2 [2]; Hill slope -0.694, Maximum measured 115.257 %, Minimum measured 6.241 %, R squared 0.775): > 16.7 µM
EC90 (dengue virus type 2 [2]; Dengue virus, VeroE6/TMPRSS2, Hill slope -0.066, Maximum measured 94.332 %, Minimum measured 44.366 %, R squared 0.022): > 10 µM
EC50 (dengue virus type 2 [2]; veroe6/tmprss2): > 10 µM and 3.01 µM
EC50 (Zika virus [3]; Vero C1008): 6.51 µM
EC90 (Zika virus [3]; Vero C1008): 7.41 µM
EC50 (Zika virus [4]; VeroE6/TMPRSS2): 13.1 µM
EC90 (Zika virus [4]; VeroE6/TMPRSS2, Baseline response 0 %, Hill slope -0.459, Maximum measured 94.623 %, Maximum response 100 %, Minimum measured 4.56 %, R squared 0.472): > 50 µM
EC50 (dengue virus type 2 [5]): > 16.7 µM
EC90 (dengue virus type 2 [5]; Hill slope -0.265, Maximum measured 113.218 %, Minimum measured 41.507 %, R squared 0.203): > 16.7 µM
EC50 (dengue virus type 2 [6]; Vero C1008): 7.05 µM
EC90 (dengue virus type 2 [6]; Vero C1008, Baseline response 0 %, EC90 CI (lower) 3.837 uM, EC90 CI (upper) 5.899 uM, Hill slope -5.588, Maximum measured 107.944 %, Maximum response 100 %, Minimum measured 3.436 %, R squared 0.982): 10.5 µM

CC[C@@H](Cc1nnn[nH]1)c1ccc(NC(=O)c2cc(Cl)cc(NC(=O)OCc3ccccc3)c2)cc1
EC50 (Zika virus [1]; Zika virus, VeroE6/TMPRSS2): 1.93 µM
EC90 (Zika virus [1]; Zika virus, VeroE6/TMPRSS2): 2.9 µM
EC50 (dengue virus type 2 [2]; Dengue virus, VeroE6/TMPRSS2): 10.4 µM
EC90 (dengue virus type 2 [2]; Dengue virus, VeroE6/TMPRSS2, Hill slope -0.442, Maximum measured 140.797 %, Minimum measured 47.356 %, R squared 0.351): > 16.7 µM
EC50 (Zika virus [3]; Vero C1008): > 50 µM
EC90 (Zika virus [3]; Vero C1008, Baseline response 0 %, Hill slope 5.649, Maximum measured 5.74 %, Maximum response 100 %, Minimum measured -1.447 %, R squared 0.24): > 50 µM
EC50 (Zika virus [4]; VeroE6/TMPRSS2): > 50 µM
EC90 (Zika virus [4]; VeroE6/TMPRSS2): > 50 µM
EC50 (dengue virus type 2 [5]): > 5.56 µM
EC90 (dengue virus type 2 [5]; Hill slope -0.186, Maximum measured 93.084 %, Minimum measured 36.595 %, R squared 0.076): > 5.56 µM
EC50 (dengue virus type 2 [6]; Vero C1008): 43.5 µM
EC90 (dengue virus type 2 [6]; Vero C1008, Baseline response 0 %, Hill slope -24.458, Maximum measured 108.477 %, Maximum response 100 %, Minimum measured 3.247 %, R squared 0.952): 47.6 µM

NCc1cccc(NC(=O)C[C@@H](NC(=O)OCc2ccccc2)c2ccc(OCc3ccccc3)cc2)c1
EC50 (dengue virus type 2 [7]): > 6.1 µM

CCCCCC(=O)N[C@H](C(=O)Nc1ccc2[nH]ncc2c1)c1ccc(OCc2ccccc2)cc1
EC50 (dengue virus type 2 [7]): 6.2 µM

O=C(Nc1cc(Cl)cc(C(=O)Nc2ccc3c(c2)CNC3)c1)OCc1ccccc1
EC90 (Zika virus [1]; Baseline response 0 %, Hill slope -10.107, Maximum measured 106.671 %, Maximum response 100 %, Minimum measured 12.006 %, P-gp concentration 2 uM, R squared 0.759, P-gp inhibitor Elacidar): > 5.56 µM
EC50 (Zika virus [1]; Zika virus, VeroE6/TMPRSS2): > 3.33 µM
EC90 (Zika virus [1]; Zika virus, VeroE6/TMPRSS2, Baseline response 0 %, Hill slope 0.615, Maximum measured 150.152 %, Maximum response 100 %, Minimum measured 64.245 %, P-gp concentration 2 uM, R squared 0.072, P-gp inhibitor Elacidar): > 3.33 µM
EC50 (Zika virus [1]; veroe6/tmprss2): 4.56 µM
EC90 (dengue virus type 2 [2]; Hill slope -0.262, Maximum measured 88.903 %, Minimum measured 51.493 %, R squared 0.387): > 5.56 µM
EC50 (dengue virus type 2 [2]; Dengue virus, VeroE6/TMPRSS2): > 3.33 µM
EC90 (dengue virus type 2 [2]; Dengue virus, VeroE6/TMPRSS2, Hill slope 0.742, Maximum measured 298.531 %, Minimum measured 53.657 %, R squared 0.04): > 3.33 µM
EC50 (dengue virus type 2 [2]; veroe6/tmprss2): > 5.56 µM
EC50 (Zika virus [4]; VeroE6/TMPRSS2): > 50 µM
EC90 (Zika virus [4]; VeroE6/TMPRSS2, Maximum measured 887.776 %, Minimum measured 72.98 %): > 50 µM
EC50 (dengue virus type 2 [5]): 0.61 µM
EC90 (dengue virus type 2 [5]; Hill slope -0.704, Maximum measured 114.373 %, Minimum measured 21.903 %, R squared 0.634): > 5.56 µM
EC50 (dengue virus type 2 [6]; Vero C1008): > 50 µM
EC90 (dengue virus type 2 [6]; Vero C1008, Maximum measured 108.699 %, Minimum measured 64.199 %): > 50 µM

CCCCCC(=O)N[C@H](C(=O)Nc1ccc(C(N)=O)cc1)c1ccc(OCc2ccccc2)cc1
EC50 (dengue virus type 2 [7]): > 32 µM

NCc1ccc(-c2ncc(OCC3CCNCC3)nc2-c2ccc(C3CCOCC3)cc2)cc1
EC50 (dengue virus type 2 [7]): > 32 µM
